Source: article PMC7482066, “Unstable Mechanisms of Resistance to Inhibitors of Escherichia coli Lipoprotein Signal Peptidase” (mBio, 2020)
Entries after “also recorded” stand apart in the source; their conditions may differ.

How the values were obtained:
[1] = test system: E. coli CFT073; assay: Bactericidal activity, CFU over time; assay type: cell-based; details: G0790 at 2× MIC, two independent experiments in duplicates
[2] = test system: E. coli CFT073; assay: Electron microscopy / live-cell imaging of morphology; assay type: cell-based; details: CFT073, 2× MIC, 1 h (EM)
Method: Electron microscopy was performed as previously described ([61]). […] Cells were immediately placed between a coverslip and a 1% MHII agarose pad containing 12.4 μM G0790 and 10 μg/ml gentamicin for imaging. Cells were maintained at 37°C during imaging with a stage-top chamber (Okolab Inc.). Cells were imaged on a Nikon Eclipse Ti inverted confocal microscope (Nikon Instruments Inc.) coupled with an UltraVIEW VoX (PerkinElmer Inc.) and a 100× (numerical aperture [NA] 1.40) oil-immersion lens objective. Images were captured at various times using an ORCA-Flash 4.0 CMOS camera (Hamamatsu Photonics), collected using Volocity software (Quorum Technologies), and processed using Fiji ([66]).

Compound: CCCCCC[C@H]1OC(=O)CNC(=O)[C@H]([C@H](C)O)NC(=O)[C@H](CN)NC(=O)[C@H](C2CCCCC2)NC(=O)[C@H](CCC)N(C)C(=O)[C@@H]1C [G0790]
- Bactericidal activity [1]: bactericidal
- Cell morphology / membrane accumulation [2]: globular cell morphology and accumulation of bacterial membranes; also recorded: changes in cellular morphology and membrane accumulation
